Reference: PMC10976246, “Amide-to-Triazole Switch in Somatostatin-14-Based Radioligands: Impact on Receptor Affinity and In Vivo Stability” (Pharmaceutics, 2024)
One block for each molecule: values may come before it. Numbered stars: 1 amine (or outer) side, 2 acyl side, 3 side chain; on linkers, the order of the positions; unused ones are H or OH. Bridge positions count the residues as written; N and C are the ends. Square brackets hold non-standard residues; d marks the D form. Peptide text beside a SMILES is read from it. * marks the point of attachment. X2 = O=C([C@H](Cc1ccccc1)n1cc([C@H](Cc2ccccc2)N[*:1])nn1)[*:2]; X1 = NC(=O)C[C@H](N[*:1])c1cn([C@@H](Cc2ccccc2)C(=O)[*:2])nn1; DOTA = O=C(O)CN1CCN(CC(=O)O)CCN(CC(=O)*)CCN(CC(=O)O)CC1

Legend:
[1] = biological target: T1, SST2R-expressing AR42J cells (Rattus norvegicus, UniProt P30680); test: Receptor saturation binding assay in AR42J cells; settings: 2 h, n = 2–3 in triplicates
T1 construct: The SST2R-expressing rat pancreatic cells (AR42J) were cultured; host or cells: AR42J rat pancreatic cells
T1 sequence (P30680 whole entry): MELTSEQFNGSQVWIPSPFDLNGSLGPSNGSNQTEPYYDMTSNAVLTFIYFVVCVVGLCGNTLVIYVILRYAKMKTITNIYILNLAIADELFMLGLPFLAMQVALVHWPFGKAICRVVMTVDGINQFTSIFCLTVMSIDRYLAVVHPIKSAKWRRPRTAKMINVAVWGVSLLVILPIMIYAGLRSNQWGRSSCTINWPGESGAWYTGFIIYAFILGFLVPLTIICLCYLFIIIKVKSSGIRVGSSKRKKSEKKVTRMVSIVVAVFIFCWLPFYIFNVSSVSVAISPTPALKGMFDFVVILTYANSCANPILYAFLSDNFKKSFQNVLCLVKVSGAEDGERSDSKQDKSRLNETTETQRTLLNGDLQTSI
Description: AR42J cells were seeded in six-well plates (1 × 10^6 cells/well) 2 days before the assay. One hour prior to the experiment, the medium was removed, the cells were washed with PBS (1 mL) and fresh assay medium (DMEM with Glutamax-1 and supplemented with 1% FBS (v/v)) was added (1.3 mL/well). […] The determination of the unspecific binding was conducted by incubating each test radioligand in the presence of excess TATE, which was added in 100 μL of PBS to a final concentration of 5 µM. The six-well plates were incubated under standard culturing conditions for 2 h; the medium was removed, the cells were washed with PBS (2 × 1 mL) and lysed as described above. The cell lysates were collected and measured in the γ-counter.

in vitro = in vitro ADME; settings: human, plasma
Description: Plasma stability studies were conducted in vitro by incubating the radioligands (in 100 µL PBS) in 1400 µL of human blood plasma (H4522–20ML, Sigma-Aldrich, Vienna, Austria) to a final concentration of 250 nM (approximately 5 MBq). After an incubation period of 6 h at 37 °C, aliquots of 100 µL were mixed with 100 µL of MeCN for protein precipitation. The mixtures were vortexed and centrifuged for 10 min (15,000× g) at 5 °C and the supernatants were collected. The supernatants (50 µL) were mixed with 0.1% aqueous TFA (50 µL) for posterior γ-HPLC analyses on a Chromolith® RP-18 performance column (2 µm, 4.6 mm × 100 mm; Merck Millipore, Vienna, Austria) eluted at a flow rate of 3 mL/min with the linear gradient from 90% A/10% B to 50% A/50% B in 14 min (A: 0.1% aqueous TFA and B: MeCN) (n = 2).

HEK293-hSST2R xenografts = settings: male, SCID, mouse, in vivo, iv, 3 nmol, 4 h
in vivo = settings: male, SCID, mouse, iv, 3 nmol, total radioactivity
hSST3R = biological target: T2, hSST3R (Homo sapiens, UniProt P32745); test: Competition binding against [125I][I-Tyr25]LTT-SST-28, HEK293-SST3R cell membranes; settings: vs [125I][I-Tyr25]LTT-SST-28, 1 h at 22 °C, mean ± sd
T2 construct: S. Schultz (Jena, Germany); host or cells: HEK293
T2 sequence (P32745 whole entry): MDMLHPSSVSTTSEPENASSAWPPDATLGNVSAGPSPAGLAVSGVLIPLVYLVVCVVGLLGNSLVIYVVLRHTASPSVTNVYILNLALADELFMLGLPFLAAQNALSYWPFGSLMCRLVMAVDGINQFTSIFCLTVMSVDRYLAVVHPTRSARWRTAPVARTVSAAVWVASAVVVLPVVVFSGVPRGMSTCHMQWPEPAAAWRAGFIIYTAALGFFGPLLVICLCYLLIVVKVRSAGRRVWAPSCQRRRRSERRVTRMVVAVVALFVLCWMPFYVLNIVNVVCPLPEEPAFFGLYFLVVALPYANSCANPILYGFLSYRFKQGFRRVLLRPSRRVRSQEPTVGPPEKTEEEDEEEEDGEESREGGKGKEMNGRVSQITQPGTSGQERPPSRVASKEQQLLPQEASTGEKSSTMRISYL
Description: After an incubation period of 1 h at 22 °C, the reaction was stopped by dilution with ice-cold washing buffer (10 mM HEPES at pH 7.4, 150 mM NaCl, 3 mL). The samples were filtered through 1%PEI presoaked glass fiber filters using a Brandel® cell harvester. After thorough washing with ice-cold washing buffer (2 × 3 mL), the filters were collected and measured in the γ-counter.

- Kd [1]: 12 ± 3.88 nM
- remaining at 6 h, 250 nM (in vitro): > 90%
SMILES: C[C@H](NC(=O)CN1CCN(CC(=O)O)CCN(CC(=O)O)CCN(CC(=O)O)CC1)C(=O)NCC(=O)N[C@H]1CSSC[C@@H](C(=O)O)NC(=O)[C@H](CO)NC(=O)[C@H]([C@@H](C)O)NC(=O)[C@H](Cc2ccccc2)NC(=O)[C@H]([C@@H](C)O)NC(=O)[C@H](CCCCN)NC(=O)[C@@H](Cc2c[nH]c3ccccc23)NC(=O)[C@H](Cc2ccccc2)NC(=O)[C@H](Cc2ccccc2)NC(=O)[C@H](CC(N)=O)NC(=O)[C@H](CCCCN)NC1=O [[^111In]In-AT2S, metal not drawn, reference compound]

- Kd [1]: > 50 nM
SMILES: C[C@H](NC(=O)CN1CCN(CC(=O)O)CCN(CC(=O)O)CCN(CC(=O)O)CC1)C(=O)NCC(=O)N[C@H]1CSSC[C@@H](C(=O)O)NC(=O)[C@H](CO)NC(=O)[C@H]([C@@H](C)O)NC(=O)[C@H](Cc2ccccc2)NC(=O)[C@H]([C@@H](C)O)NC(=O)[C@H](CCCCN)NC(=O)[C@@H](Cc2c[nH]c3ccccc23)NC(=O)[C@H](Cc2ccccc2)n2cc(nn2)[C@H](Cc2ccccc2)NC(=O)[C@H](CC(N)=O)NC(=O)[C@H](CCCCN)NC1=O [[^111In]In-XG2, metal not drawn] ({DOTA}-AGCKN[X2][dW]KTFTSC-OH; disulfide 3-13)

- remaining at 6 h, 250 nM (in vitro): > 90%
- kidney uptake (HEK293-hSST2R xenografts): > 200 % IA/g
- tissue uptake at 4 h (in vivo; HEK293-hSST2R tumor uptake): 1.61 %ID/g
- tissue uptake at 4 h (in vivo; kidney uptake): 310 %ID/g
- tissue uptake at 4 h (in vivo; wtHEK293 (SST2R-negative) control tumor uptake): 0.56 %ID/g
SMILES: C[C@H](NC(=O)CN1CCN(CC(=O)O)CCN(CC(=O)O)CCN(CC(=O)O)CC1)C(=O)NCC(=O)N[C@H]1CSSC[C@@H](C(=O)O)NC(=O)[C@H](CO)NC(=O)[C@H]([C@@H](C)O)NC(=O)[C@H](Cc2ccccc2)NC(=O)[C@H]([C@@H](C)O)NC(=O)[C@H](CCCCN)NC(=O)[C@@H](Cc2c[nH]c3ccccc23)NC(=O)[C@H](Cc2ccccc2)NC(=O)[C@H](Cc2ccccc2)n2cc(nn2)[C@H](CC(N)=O)NC(=O)[C@H](CCCCN)NC1=O [[^111In]In-XG1, metal not drawn] ({DOTA}-AGCK[X1]F[dW]KTFTSC-OH; disulfide 3-13)

- IC50 (hSST3R): 3 ± 0.9 nM
SMILES: C[C@H](NC(=O)CN1CCN(CC(=O)O)CCN(CC(=O)O)CCN(CC(=O)O)CC1)C(=O)NCC(=O)N[C@H]1CSSC[C@@H](C(=O)O)NC(=O)[C@H](CO)NC(=O)[C@H]([C@@H](C)O)NC(=O)[C@H](Cc2ccccc2)NC(=O)[C@H]([C@@H](C)O)NC(=O)[C@H](CCCCN)NC(=O)[C@@H](Cc2c[nH]c3ccccc23)NC(=O)[C@H](Cc2ccccc2)NC(=O)[C@H](Cc2ccccc2)n2cc(nn2)[C@H](CC(N)=O)NC(=O)[C@H](CCCCN)NC1=O [XG1, [DOTA,Asn^5-Ψ[Tz]-Phe^6, D-Trp^8]SST-14] ({DOTA}-AGCK[X1]F[dW]KTFTSC-OH; disulfide 3-13)
